Biological target: T1, wild-type LRRK2 (Homo sapiens, UniProt Q5S007)
T1 construct: DNA tag for qPCR detection (not a peptide; the protein part that carries it is not described); made in house; host or cells: HEK 293 cells (the same paragraph also describes T7 phage grown in E. coli BL21)
Assay: Inhibitory activity against LRRK2: competition binding to ligand-affinity beads, DNA-tagged kinase quantitated by qPCR
Details: % of ctrl; for remaining binding at 0.01 µM: 10 nM compound, read-out: LRRK2(WT) Remaining kinase activity(%) at 10 nM; for remaining binding at 0.05 µM: 50 nM compound, read-out: LRRK2(WT) Remaining kinase activity(%) at 50 nM
Experimental: Representative compounds synthesized in Example 1 were assayed for inhibitory activity against wild-type LRRK2 and mutant LRRK2 (G2019S), and the results are summarized in Tables 2 and 3. In brief, a T7 phase strain carrying the wild-type kinase consisting of amino acid residues from H970 to E2527 of human-derived LRRK2 (Accession no. NP_940980.3) or a T7 phase strain carrying the G2019S mutation kinase was infected into E. coli strain BL21 which was then grown until log phase. After infection with T7 phases (multiplicity of infection=0.4), the cells were cultured at 32° C. for 90-150 minutes while shaking. Then, E. coli lysates were centrifuged (6,000×g) and the supernatant was filtered through a 0.2-μm filter. The kinases were produced in HEK 293 cells. In this regard, DNA was tagged to obtain DNA-tagged kinases for qPCR detection. For use in analyzing the kinases, affinity resins were prepared by treating streptavidin-coated magnetic beads with biotinylated small molecule ligands at room temperature for 30 minutes. Then, the liganded beads were blocked with an excess of biotin and washed with a blocking buffer (SeaBlock (Pierce), 1% BSA, 0.05% Tween 20, 1 mM DTT) to remove unbound ligands and thus to reduce the binding of non-specific phages. […] After one hour of incubation, the affinity beads were washed with a wash buffer (1×PBS, 0.05% Tween 20), resuspended in an elution buffer (1×PBS, 0.05% Tween 20, 0.5 μM non-biotinylated affinity ligand), and incubated at room temperature for 30 minutes while shaking. Afterwards, concentrations of wild-type LRRK2 and mutant LRRK2 (G2019S) in the eluted samples were quantitated by qPCR. Activity values are expressed as percentages relative to the control (% of ctrl). The compounds used in the activity assay were prepared into 40× stocks in 100% DMSO. The stocks were directly diluted during analysis procedures.
Table 2 includes inhibitory activities of the representative compounds of the present disclosure at 100 nM against wild-type LRRK2 and mutant LRRK2 (G2019S) while Table 3 includes inhibitory activities of the representative compounds at 10 nM and 50 nM against wild-type LRRK2. (+++ less than 10%; ++ less than 30%; + less than 50%; −50% or higher)

T1 sequence (Q5S007 970-2527): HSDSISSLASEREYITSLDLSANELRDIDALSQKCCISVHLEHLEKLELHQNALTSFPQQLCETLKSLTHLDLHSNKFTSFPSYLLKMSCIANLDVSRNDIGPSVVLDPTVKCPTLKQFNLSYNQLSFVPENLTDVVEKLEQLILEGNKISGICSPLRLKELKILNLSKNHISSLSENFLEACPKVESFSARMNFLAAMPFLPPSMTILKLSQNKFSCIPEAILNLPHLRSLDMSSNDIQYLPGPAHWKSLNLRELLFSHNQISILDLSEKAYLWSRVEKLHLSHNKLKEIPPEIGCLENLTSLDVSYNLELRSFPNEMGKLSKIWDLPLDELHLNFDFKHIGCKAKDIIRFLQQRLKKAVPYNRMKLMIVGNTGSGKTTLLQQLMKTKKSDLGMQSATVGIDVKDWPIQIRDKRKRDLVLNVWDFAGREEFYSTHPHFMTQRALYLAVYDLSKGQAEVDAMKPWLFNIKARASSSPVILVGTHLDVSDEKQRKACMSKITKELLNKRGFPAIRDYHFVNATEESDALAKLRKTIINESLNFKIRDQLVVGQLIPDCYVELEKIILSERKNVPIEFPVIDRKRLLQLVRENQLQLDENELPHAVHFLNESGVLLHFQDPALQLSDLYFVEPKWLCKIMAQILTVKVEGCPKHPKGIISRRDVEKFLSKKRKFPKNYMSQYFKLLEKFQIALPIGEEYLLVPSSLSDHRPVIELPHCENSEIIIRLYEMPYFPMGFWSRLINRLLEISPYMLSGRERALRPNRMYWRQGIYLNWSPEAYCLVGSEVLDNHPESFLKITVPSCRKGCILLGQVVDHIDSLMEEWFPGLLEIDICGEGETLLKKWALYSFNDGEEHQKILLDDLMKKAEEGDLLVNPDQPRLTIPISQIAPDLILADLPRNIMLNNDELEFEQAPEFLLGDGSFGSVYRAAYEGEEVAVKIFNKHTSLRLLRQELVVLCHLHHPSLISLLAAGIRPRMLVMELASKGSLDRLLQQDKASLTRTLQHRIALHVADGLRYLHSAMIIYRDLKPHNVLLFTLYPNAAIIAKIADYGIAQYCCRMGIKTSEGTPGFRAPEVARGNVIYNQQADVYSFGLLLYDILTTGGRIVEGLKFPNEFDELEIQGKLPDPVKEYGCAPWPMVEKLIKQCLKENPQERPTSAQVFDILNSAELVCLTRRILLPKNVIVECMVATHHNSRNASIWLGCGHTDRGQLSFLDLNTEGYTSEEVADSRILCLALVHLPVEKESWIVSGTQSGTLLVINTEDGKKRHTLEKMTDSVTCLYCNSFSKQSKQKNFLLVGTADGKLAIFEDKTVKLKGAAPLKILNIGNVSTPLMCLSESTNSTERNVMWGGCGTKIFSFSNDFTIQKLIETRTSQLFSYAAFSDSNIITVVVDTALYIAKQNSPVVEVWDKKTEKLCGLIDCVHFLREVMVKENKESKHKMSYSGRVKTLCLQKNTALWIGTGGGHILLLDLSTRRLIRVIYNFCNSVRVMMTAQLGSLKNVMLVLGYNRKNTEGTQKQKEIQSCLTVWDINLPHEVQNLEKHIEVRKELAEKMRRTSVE

remaining binding at 0.01 µM [%]	remaining binding at 0.05 µM [%]	SMILES
≥ 50	< 30	Cc1cc(C(=O)N2CCN(C)CC2)ccc1Nc1ncc(Cl)c(-c2cnn(C(C)C)c2)n1 [Compound 109, (4-((5-chloro-4-(1-isopropyl-1H-pyrazol-4-yl)pyrimidin-2-yl)amino)-3-methylphenyl)(4-methylpiperazin-1-yl)methanone]
< 50	< 10	COc1cc(C(=O)N2CCC(N(C)C)CC2)c(F)cc1Nc1ncc(Cl)c(-c2cnn(C(C)C)c2)n1 [Compound 110, (4-((5-chloro-4-(1-isopropyl-1H-pyrazol-4-yl)pyrimidin-2-yl)amino)-2-fluoro-5-methoxyphenyl)(4-(dimethylamino)piperidin-1-yl)methanone]
< 50	< 30	COc1cc(C(=O)Nc2ccccc2)ccc1Nc1ncc(Cl)c(-c2cnn(C(C)C)c2)n1 [Compound 112, 4-((5-chloro-4-(1-isopropyl-1H-pyrazol-4-yl)pyrimidin-2-yl)amino)-3-methoxy-N-phenylbenzamide]
≥ 50	< 50	COc1cc(C(=O)NCc2ccc(C)cc2)ccc1Nc1ncc(Cl)c(-c2cnn(C(C)C)c2)n1 [Compound 126, 4-((5-chloro-4-(1-isopropyl-1H-pyrazol-4-yl)pyrimidin-2-yl)amino)-3-methoxy-N-(4-methylbenzyl)benzamide]
< 50	< 30	COc1cc(C(=O)Nc2ccc(N(C)C)cc2)ccc1Nc1ncc(Cl)c(-c2cnn(C(C)C)c2)n1 [Compound 127, 4-((5-chloro-4-(1-isopropyl-1H-pyrazol-4-yl)pyrimidin-2-yl)amino)-N-(4-(dimethylamino)phenyl)-3-methoxybenzamide]
≥ 50	< 50	COc1cc(C(=O)NCc2ccc(C#N)cc2)ccc1Nc1ncc(Cl)c(-c2cnn(C(C)C)c2)n1 [Compound 128, 4-((5-chloro-4-(1-isopropyl-1H-pyrazol-4-yl)pyrimidin-2-yl)amino)-N-(4-cyanobenzyl)-3-methoxybenzamide]
≥ 50	< 50	COc1cc(C(=O)NC2Cc3ccccc3C2)ccc1Nc1ncc(Cl)c(-c2cnn(C(C)C)c2)n1 [Compound 129, 4-((5-chloro-4-(1-isopropyl-1H-pyrazol-4-yl)pyrimidin-2-yl)amino)-N-(2,3-dihydro-1H-inden-2-yl)-3-methoxybenzamide]
≥ 50	< 30	COc1cc(C(=O)NCC2CCOC2)ccc1Nc1ncc(Cl)c(-c2cnn(C(C)C)c2)n1 (stereo not drawn) [Compound 130, 4-((5-chloro-4-(1-isopropyl-1H-pyrazol-4-yl)pyrimidin-2-yl)amino)-3-methoxy-N-((tetrahydrofuran-3-yl)methyl)benzamide]
≥ 50	< 50	COc1cc(C(=O)NCCO)ccc1Nc1ncc(Cl)c(-c2cnn(C(C)C)c2)n1 [Compound 138, 4-((5-chloro-4-(1-isopropyl-1H-pyrazol-4-yl)pyrimidin-2-yl)amino)-N-(2-hydroxyethyl)-3-methoxybenzamide]
≥ 50	< 30	COCCNC(=O)c1ccc(Nc2ncc(Cl)c(-c3cnn(C(C)C)c3)n2)c(OC)c1 [Compound 140, 4-((5-chloro-4-(1-isopropyl-1H-pyrazol-4-yl)pyrimidin-2-yl)amino)-3-methoxy-N-(2-methoxyethyl)benzamide]
≥ 50	< 30	COc1cc(C(=O)N(C)CCO)ccc1Nc1ncc(Cl)c(-c2cnn(C(C)C)c2)n1 [Compound 141, 4-((5-chloro-4-(1-isopropyl-1H-pyrazol-4-yl)pyrimidin-2-yl)amino)-N-(2-hydroxyethyl)-3-methoxy-N-methylbenzamide]
≥ 50	< 50	COc1cc(C(=O)Nc2ccc(Cl)cc2)ccc1Nc1ncc(Cl)c(-c2cnn(C(C)C)c2)n1 [Compound 151, 4-((5-chloro-4-(1-isopropyl-1H-pyrazol-4-yl)pyrimidin-2-yl)amino)-N-(4-chlorophenyl)-3-methoxybenzamide]
≥ 50	< 30	COc1cc(C(=O)NCc2cccc(O)c2)ccc1Nc1ncc(Cl)c(-c2cnn(C(C)C)c2)n1 [Compound 152, 4-((5-chloro-4-(1-isopropyl-1H-pyrazol-4-yl)pyrimidin-2-yl)amino)-N-(3-hydroxybenzyl)-3-methoxybenzamide]
≥ 50	< 30	COc1ccccc1CNC(=O)c1ccc(Nc2ncc(Cl)c(-c3cnn(C(C)C)c3)n2)c(OC)c1 [Compound 154, 4-((5-chloro-4-(1-isopropyl-1H-pyrazol-4-yl)pyrimidin-2-yl)amino)-3-methoxy-N-(2-methoxybenzyl)benzamide]
≥ 50	< 30	COc1cc(C(=O)NC2CC(C)(C)NC(C)(C)C2)ccc1Nc1ncc(Cl)c(-c2cnn(C(C)C)c2)n1 [Compound 166, 4-((5-chloro-4-(1-isopropyl-1H-pyrazol-4-yl)pyrimidin-2-yl)amino)-3-methoxy-N-(2,2,6,6-tetramethylpiperidin-4-yl)benzamide]
≥ 50	< 30	COc1cc(C(=O)NN2C(C)CCCC2C)ccc1Nc1ncc(Cl)c(-c2cnn(C(C)C)c2)n1 (stereo not drawn) [Compound 167, 4-((5-chloro-4-(1-isopropyl-1H-pyrazol-4-yl)pyrimidin-2-yl)amino)-N-(2,6-dimethylpiperidin-1-yl)-3-methoxybenzamide]
≥ 50	< 50	COc1cc(C(=O)NCc2ccc(Cl)nc2)ccc1Nc1ncc(Cl)c(-c2cnn(C(C)C)c2)n1 [Compound 168, 4-((5-chloro-4-(1-isopropyl-1H-pyrazol-4-yl)pyrimidin-2-yl)amino)-N-((6-chloropyridin-3-yl)methyl)-3-methoxybenzamide]
≥ 50	< 50	CCOC(=O)CCNC(=O)c1ccc(Nc2ncc(Cl)c(-c3cnn(C(C)C)c3)n2)c(OC)c1 [Compound 176, ethyl 3-(4-((5-chloro-4-(1-isopropyl-1H-pyrazol-4-yl)pyrimidin-2-yl)amino)-3-methoxybenzamido)propanoate]
≥ 50	< 50	COc1cc(C(=O)NC(C)c2ccccc2)ccc1Nc1ncc(Cl)c(-c2cnn(C(C)C)c2)n1 (stereo not drawn) [Compound 179, 4-((5-chloro-4-(1-isopropyl-1H-pyrazol-4-yl)pyrimidin-2-yl)amino)-3-methoxy-N-(1-phenylethyl)benzamide]
≥ 50	< 50	CCC(NC(=O)c1ccc(Nc2ncc(Cl)c(-c3cnn(C(C)C)c3)n2)c(OC)c1)c1ccccc1 (stereo not drawn) [Compound 182, 4-((5-chloro-4-(1-isopropyl-1H-pyrazol-4-yl)pyrimidin-2-yl)amino)-3-methoxy-N-(1-phenylpropyl)benzamide]
≥ 50	< 30	COc1cc(C(=O)NCc2ccc(N)cc2)ccc1Nc1ncc(Cl)c(-c2cnn(C(C)C)c2)n1 [Compound 183, N-(4-aminobenzyl)-4-((5-chloro-4-(1-isopropyl-1H-pyrazol-4-yl)pyrimidin-2-yl)amino)-3-methoxybenzamide]
≥ 50	< 50	COc1cc(C(=O)NCc2ccc(S(N)(=O)=O)cc2)ccc1Nc1ncc(Cl)c(-c2cnn(C(C)C)c2)n1 [Compound 189, 4-((5-chloro-4-(1-isopropyl-1H-pyrazol-4-yl)pyrimidin-2-yl)amino)-3-methoxy-N-(4-sulfamoylbenzyl)benzamide]
≥ 50	< 50	COc1cc(C(=O)Nc2cccc(NS(C)(=O)=O)c2)ccc1Nc1ncc(Cl)c(-c2cnn(C(C)C)c2)n1 [Compound 190, 4-((5-chloro-4-(1-isopropyl-1H-pyrazol-4-yl)pyrimidin-2-yl)amino)-3-methoxy-N-(3-(methylsulfonamido)phenyl)benzamide]
≥ 50	< 30	COc1cc(C(=O)Nc2cccc(S(N)(=O)=O)c2)ccc1Nc1ncc(Cl)c(-c2cnn(C(C)C)c2)n1 [Compound 191, 4-((5-chloro-4-(1-isopropyl-1H-pyrazol-4-yl)pyrimidin-2-yl)amino)-3-methoxy-N-(3-sulfamoylphenyl)benzamide]

Reference: patent publication US20240254103A9, “NOVEL PYRIMIDINE DERIVATIVE, AND COMPOSITION FOR PREVENTING OR TREATING NEURODEGENERATIVE DISEASES AND CANCER, COMPRISING SAME” (WHAN IN PHARMACEUTICAL CO., LTD., priority 2020, published 2024)
